Reference: patent US20020111274A1, “1-alkyl-3-[1-(substituted phenyl) benzotriazol-6-yl] uracils” (BASF Aktiengesellschaft, priority 2000, published 2002)

Assays:
Design in all cases: scale not given here
AMBEL Ragweed, Common [1] = assay: Preemergence herbicidal evaluation, AMBEL; format: in vivo, Ambrosia artemisifolia, L.; details: preemergence
In short: (§1)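 Seeds mixed with potting soil were planted on about one inch of soil in cups, then sprayed with the test compound in aqueous acetone at roughly 0.013 to 0.800 kg per hectare. Plants were kept under standard greenhouse care and injury was rated four to five weeks after treatment.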

[2] = test system: TRZAWR Wheat, Winter, cv Riband; assay: Preemergence herbicidal evaluation, TRZAWR; format: in vivo, Triticum aestivum; details: preemergence
In short: as §1

CASOB Sicklepod [3] = assay: Postemergence herbicidal evaluation, CASOB; format: in vivo, Cassia obtusifolia, L.; details: postemergence spray, rated about two-three weeks after treatment
In short: (§2)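 Ratings from greenhouse plants scored about two to three weeks after a foliar spray; data from multiple tests averaged. Seedlings about two weeks old received roughly 0.006–0.400 kg/ha active compound in 80/20 acetone/water with 1.0% methylated seed oil.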

SETVI Foxtail, Green [4] = assay: Preemergence herbicidal evaluation, SETVI; format: in vivo, Setaria viridis, (L.) Beau; details: preemergence
In short: as §1

[5] = test system: CHEAL Lambsquarters, Common; assay: Preemergence herbicidal evaluation, CHEAL; format: in vivo, Chenopodium album, L.; details: preemergence
In short: as §1

ABUTH Velvetleaf [6] = assay: Preemergence herbicidal evaluation, ABUTH; format: in vivo, Abutilon theophrasti, Medic.; details: preemergence
In short: as §1

ECHOG Barnyardgrass [7] = assay: Postemergence herbicidal evaluation, ECHOG; format: in vivo, Echinochloa crus-galli, (L.) Beau; details: postemergence spray, rated about two-three weeks after treatment
In short: as §2

[8] = test system: CHEAL Lambsquarters, Common; assay: Postemergence herbicidal evaluation, CHEAL; format: in vivo, Chenopodium album, L.; details: postemergence spray, rated about two-three weeks after treatment
In short: as §2

GLXMAW Soybean, Williams [9] = assay: Postemergence herbicidal evaluation, GLXMAW; format: in vivo, Glycine max, (L.) Merr. cv Williams; details: postemergence spray, rated about two-three weeks after treatment
In short: as §2

GALAP Galium [10] = assay: Postemergence herbicidal evaluation, GALAP; format: in vivo, Galium aparine; details: postemergence spray, rated about two-three weeks after treatment
In short: as §2

GALAP Galium [11] = assay: Preemergence herbicidal evaluation, GALAP; format: in vivo, Galium aparine; details: preemergence
In short: as §1

AMBEL Ragweed, Common [12] = assay: Postemergence herbicidal evaluation, AMBEL; format: in vivo, Ambrosia artemisifolia, L.; details: postemergence spray, rated about two-three weeks after treatment
In short: as §2

[13] = test system: IPOHE Morningglory, Ivyleaf; assay: Preemergence herbicidal evaluation, IPOHE; format: in vivo, Ipomoea hederacea, (L.) Jacq.; details: preemergence
In short: as §1

ORYSAT Rice, Tebonnet [14] = assay: Postemergence herbicidal evaluation, ORYSAT; format: in vivo, Oryza sativa, (L.); details: postemergence spray, rated about two-three weeks after treatment
In short: as §2

[15] = test system: TRZAWR Wheat, Winter, cv Riband; assay: Postemergence herbicidal evaluation, TRZAWR; format: in vivo, Triticum aestivum; details: postemergence spray, rated about two-three weeks after treatment
In short: as §2

ZEAMX Corn, Field [16] = assay: Preemergence herbicidal evaluation, ZEAMX; format: in vivo, Zea mays, L. (Sammel-Bezeichnung); details: preemergence
In short: as §1

SETVI Foxtail, Green [17] = assay: Postemergence herbicidal evaluation, SETVI; format: in vivo, Setaria viridis, (L.) Beau; details: postemergence spray, rated about two-three weeks after treatment
In short: as §2

ABUTH Velvetleaf [18] = assay: Postemergence herbicidal evaluation, ABUTH; format: in vivo, Abutilon theophrasti, Medic.; details: postemergence spray, rated about two-three weeks after treatment
In short: as §2

ORYSAT Rice, Tebonnet [19] = assay: Preemergence herbicidal evaluation, ORYSAT; format: in vivo, Oryza sativa, (L.); details: preemergence
In short: as §1

[20] = test system: IPOHE Morningglory, Ivyleaf; assay: Postemergence herbicidal evaluation, IPOHE; format: in vivo, Ipomoea hederacea, (L.) Jacq.; details: postemergence spray, rated about two-three weeks after treatment
In short: as §2

ZEAMX Corn, Field [21] = assay: Postemergence herbicidal evaluation, ZEAMX; format: in vivo, Zea mays, L. (Sammel-Bezeichnung); details: postemergence spray, rated about two-three weeks after treatment
In short: as §2

ECHOG Barnyardgrass [22] = assay: Preemergence herbicidal evaluation, ECHOG; format: in vivo, Echinochloa crus-galli, (L.) Beau; details: preemergence
In short: as §1

GLXMAW Soybean, Williams [23] = assay: Preemergence herbicidal evaluation, GLXMAW; format: in vivo, Glycine max, (L.) Merr. cv Williams; details: preemergence
In short: as §1

CASOB Sicklepod [24] = assay: Preemergence herbicidal evaluation, CASOB; format: in vivo, Cassia obtusifolia, L.; details: preemergence
In short: as §1

CCc1ccc(-n2nnc3cc(F)c(-n4c(=O)cc(C(F)(F)F)n(C)c4=O)cc32)cc1COC [Example 28]
0.0: AMBEL herbicidal rating (AMBEL Ragweed, Common [1]; rate 0.016 kg/ha) | AMBEL herbicidal rating (AMBEL Ragweed, Common [1]; rate 0.032 kg/ha) | TRZAWR herbicidal rating ([2]; rate 0.016 kg/ha) | TRZAWR herbicidal rating ([2]; rate 0.032 kg/ha) | TRZAWR herbicidal rating ([2]; rate 0.062 kg/ha) | TRZAWR herbicidal rating ([2]; rate 0.125 kg/ha) | Postemergence herbicidal rating CASOB (CASOB Sicklepod [3]; 0.008 kg/ha) | Postemergence herbicidal rating CASOB (CASOB Sicklepod [3]; 0.016 kg/ha) | SETVI herbicidal rating (SETVI Foxtail, Green [4]; rate 0.016 kg/ha) | Postemergence herbicidal rating ECHCG (ECHOG Barnyardgrass [7]; 0.008 kg/ha) | Postemergence herbicidal rating ECHCG (ECHOG Barnyardgrass [7]; 0.016 kg/ha) | GALAP herbicidal rating (GALAP Galium [11]; rate 0.016 kg/ha) | GALAP herbicidal rating (GALAP Galium [11]; rate 0.032 kg/ha) | GALAP herbicidal rating (GALAP Galium [11]; rate 0.062 kg/ha) | IPOHE herbicidal rating ([13]; rate 0.016 kg/ha) | IPOHE herbicidal rating ([13]; rate 0.032 kg/ha) | ZEAMX herbicidal rating (ZEAMX Corn, Field [16]; rate 0.016 kg/ha) | Postemergence herbicidal rating SETVI (SETVI Foxtail, Green [17]; 0.008 kg/ha) | ORYSAT herbicidal rating (ORYSAT Rice, Tebonnet [19]; rate 0.016 kg/ha) | ORYSAT herbicidal rating (ORYSAT Rice, Tebonnet [19]; rate 0.032 kg/ha) | ORYSAT herbicidal rating (ORYSAT Rice, Tebonnet [19]; rate 0.062 kg/ha) | ORYSAT herbicidal rating (ORYSAT Rice, Tebonnet [19]; rate 0.125 kg/ha) | ECHCG herbicidal rating (ECHOG Barnyardgrass [22]; rate 0.016 kg/ha) | ECHCG herbicidal rating (ECHOG Barnyardgrass [22]; rate 0.032 kg/ha) | ECHCG herbicidal rating (ECHOG Barnyardgrass [22]; rate 0.062 kg/ha) | GLXMAW herbicidal rating (GLXMAW Soybean, Williams [23]; rate 0.016 kg/ha) | GLXMAW herbicidal rating (GLXMAW Soybean, Williams [23]; rate 0.032 kg/ha) | GLXMAW herbicidal rating (GLXMAW Soybean, Williams [23]; rate 0.062 kg/ha) | GLXMAW herbicidal rating (GLXMAW Soybean, Williams [23]; rate 0.125 kg/ha) | CASOB herbicidal rating (CASOB Sicklepod [24]; rate 0.016 kg/ha) | CASOB herbicidal rating (CASOB Sicklepod [24]; rate 0.032 kg/ha) | CASOB herbicidal rating (CASOB Sicklepod [24]; rate 0.062 kg/ha)
0.5: Postemergence herbicidal rating ORYSAT (ORYSAT Rice, Tebonnet [14]; 0.008 kg/ha)
6.0: Postemergence herbicidal rating GLXMAW (GLXMAW Soybean, Williams [9]; 0.032 kg/ha) | Postemergence herbicidal rating GALAP (GALAP Galium [10]; 0.032 kg/ha) | Postemergence herbicidal rating ZEAMX (ZEAMX Corn, Field [21]; 0.016 kg/ha) | Postemergence herbicidal rating ZEAMX (ZEAMX Corn, Field [21]; 0.032 kg/ha)
1.0: AMBEL herbicidal rating (AMBEL Ragweed, Common [1]; rate 0.062 kg/ha) | Postemergence herbicidal rating CASOB (CASOB Sicklepod [3]; 0.032 kg/ha) | Postemergence herbicidal rating ECHCG (ECHOG Barnyardgrass [7]; 0.032 kg/ha) | Postemergence herbicidal rating ECHCG (ECHOG Barnyardgrass [7]; 0.062 kg/ha) | IPOHE herbicidal rating ([13]; rate 0.062 kg/ha) | IPOHE herbicidal rating ([13]; rate 0.125 kg/ha)
9.0: SETVI herbicidal rating (SETVI Foxtail, Green [4]; rate 0.125 kg/ha) | CHEAL herbicidal rating ([5]; rate 0.032 kg/ha) | CHEAL herbicidal rating ([5]; rate 0.062 kg/ha) | CHEAL herbicidal rating ([5]; rate 0.125 kg/ha) | ABUTH herbicidal rating (ABUTH Velvetleaf [6]; rate 0.062 kg/ha) | ABUTH herbicidal rating (ABUTH Velvetleaf [6]; rate 0.125 kg/ha) | Postemergence herbicidal rating CHEAL ([8]; 0.062 kg/ha) | GALAP herbicidal rating (GALAP Galium [11]; rate 0.125 kg/ha) | Postemergence herbicidal rating AMBEL (AMBEL Ragweed, Common [12]; 0.008 kg/ha) | Postemergence herbicidal rating AMBEL (AMBEL Ragweed, Common [12]; 0.016 kg/ha) | Postemergence herbicidal rating AMBEL (AMBEL Ragweed, Common [12]; 0.032 kg/ha) | Postemergence herbicidal rating AMBEL (AMBEL Ragweed, Common [12]; 0.062 kg/ha) | Postemergence herbicidal rating SETVI (SETVI Foxtail, Green [17]; 0.062 kg/ha) | Postemergence herbicidal rating ABUTH (ABUTH Velvetleaf [18]; 0.008 kg/ha) | Postemergence herbicidal rating ABUTH (ABUTH Velvetleaf [18]; 0.016 kg/ha) | Postemergence herbicidal rating ABUTH (ABUTH Velvetleaf [18]; 0.032 kg/ha) | Postemergence herbicidal rating ABUTH (ABUTH Velvetleaf [18]; 0.062 kg/ha) | Postemergence herbicidal rating IPOHE ([20]; 0.008 kg/ha) | Postemergence herbicidal rating IPOHE ([20]; 0.016 kg/ha) | Postemergence herbicidal rating IPOHE ([20]; 0.032 kg/ha) | Postemergence herbicidal rating IPOHE ([20]; 0.062 kg/ha)
3.0: Postemergence herbicidal rating CASOB (CASOB Sicklepod [3]; 0.062 kg/ha) | CHEAL herbicidal rating ([5]; rate 0.016 kg/ha) | Postemergence herbicidal rating ORYSAT (ORYSAT Rice, Tebonnet [14]; 0.032 kg/ha) | ZEAMX herbicidal rating (ZEAMX Corn, Field [16]; rate 0.032 kg/ha) | Postemergence herbicidal rating SETVI (SETVI Foxtail, Green [17]; 0.016 kg/ha)
5.5: Postemergence herbicidal rating ORYSAT (ORYSAT Rice, Tebonnet [14]; 0.062 kg/ha) | Postemergence herbicidal rating TRZAWR ([15]; 0.062 kg/ha)
2.5: Postemergence herbicidal rating TRZAWR ([15]; 0.008 kg/ha)
4.0: SETVI herbicidal rating (SETVI Foxtail, Green [4]; rate 0.062 kg/ha) | Postemergence herbicidal rating CHEAL ([8]; 0.016 kg/ha) | Postemergence herbicidal rating GLXMAW (GLXMAW Soybean, Williams [9]; 0.008 kg/ha) | Postemergence herbicidal rating GALAP (GALAP Galium [10]; 0.008 kg/ha) | Postemergence herbicidal rating GALAP (GALAP Galium [10]; 0.016 kg/ha) | ZEAMX herbicidal rating (ZEAMX Corn, Field [16]; rate 0.062 kg/ha)
3.5: Postemergence herbicidal rating ZEAMX (ZEAMX Corn, Field [21]; 0.008 kg/ha)
7.0: AMBEL herbicidal rating (AMBEL Ragweed, Common [1]; rate 0.125 kg/ha) | Postemergence herbicidal rating CHEAL ([8]; 0.032 kg/ha) | Postemergence herbicidal rating SETVI (SETVI Foxtail, Green [17]; 0.032 kg/ha) | ECHCG herbicidal rating (ECHOG Barnyardgrass [22]; rate 0.125 kg/ha)
5.0: Postemergence herbicidal rating GLXMAW (GLXMAW Soybean, Williams [9]; 0.016 kg/ha) | ZEAMX herbicidal rating (ZEAMX Corn, Field [16]; rate 0.125 kg/ha)
2.0: SETVI herbicidal rating (SETVI Foxtail, Green [4]; rate 0.032 kg/ha) | ABUTH herbicidal rating (ABUTH Velvetleaf [6]; rate 0.032 kg/ha) | Postemergence herbicidal rating CHEAL ([8]; 0.008 kg/ha) | Postemergence herbicidal rating ORYSAT (ORYSAT Rice, Tebonnet [14]; 0.016 kg/ha)
7.5: Postemergence herbicidal rating ZEAMX (ZEAMX Corn, Field [21]; 0.062 kg/ha)
4.5: Postemergence herbicidal rating TRZAWR ([15]; 0.016 kg/ha) | Postemergence herbicidal rating TRZAWR ([15]; 0.032 kg/ha)
8.0: Postemergence herbicidal rating GALAP (GALAP Galium [10]; 0.062 kg/ha)
6.5: Postemergence herbicidal rating GLXMAW (GLXMAW Soybean, Williams [9]; 0.062 kg/ha)
